Laboratory results as given in PubChem BioAssay AID1626 (SRMLSC, 2009).

System: M. tuberculosis H37Rv growth inhibition
Assay: M. tuberculosis H37Rv growth inhibitors, H37Rv strain (AID 1626)
Settings: for IC90: measured here: IC90 against H37Rv; for CC50: measured here: Vero cell cytotoxicity

Compound: Nc1c(C(=O)NCCc2ccccc2)c2nc3ccccc3nc2n1CCN1CCOCC1
- IC50: 18.6 µM
- IC90: 25.4 µM
- CC50: 31.4 µM

Compound: Cc1cccc(Cc2cnc(N3C(=N)SC(c4ccccc4)C3=O)s2)c1 (stereo unspecified)
- IC50: 8.81 µM
- IC90: > 100 µM
- CC50: 36.8 µM

Compound: CCNc1nc(NC(C)(C)C)nc(N2CCCCC2)n1
- IC50: 16 µM
- IC90: 29.5 µM
- CC50: > 40 µM

Compound: COc1ccc2nc(SCC(=O)Nc3ccc4c(c3)CCC4)[nH]c2c1
- IC50: 15.6 µM
- IC90: > 100 µM

Compound: CCCCCCCCSc1nnc(CSc2nc3nc(C)cc(C)n3n2)o1
- IC50: 0.635 µM
- IC90: 24.6 µM

Compound: O=C(NCc1ccc(F)cc1)C(=O)Nc1nc(C23CC4CC(CC(C4)C2)C3)cs1
- CC50: 21.4 µM

Compound: CCCC(=O)OCCNc1cc(Sc2nccn2C)c2nonc2c1[N+](=O)[O-]
- IC50: 17.9 µM
- IC90: 31.6 µM
- CC50: 19.2 µM

Compound: CCOC(=O)c1ccc(NC(=O)Nc2ncccc2C)cc1
- CC50: > 40 µM

Compound: O=C(CSc1nc2ccccc2[nH]1)N1c2ccccc2Sc2ccccc21
- IC50: 17.4 µM
- IC90: > 100 µM
- CC50: > 40 µM

Compound: Cc1sc2cc3c(c(C(=O)c4ccccc4)[n+]2c1C)-c1cccc2cccc-3c12
- IC50: 1.52 µM
- IC90: 2.33 µM
- CC50: > 40 µM

Compound: CCCNC(=O)NC(=O)COc1ccc(-c2ccc(C#N)cc2)cc1
- IC50: 0.754 µM
- IC90: > 100 µM

Compound: CCC(C)c1ccc(NC(=O)COC(=O)C2=COCCO2)cc1 (stereo unspecified)
- IC50: 4.54 µM
- IC90: > 100 µM

Compound: Cc1sc2nc(-c3ccccn3)[nH]c(=O)c2c1-c1ccccc1
- IC50: 0.69 µM
- IC90: 1.69 µM
- CC50: 15.2 µM

Compound: Nc1cnc(-c2ccccc2)nc1Cl
- IC50: 7.27 µM
- IC90: > 100 µM

Compound: COC(=O)COc1ccc(-c2ccc(F)cc2)cc1C=O
- IC50: 5.69 µM
- IC90: 9.92 µM

Compound: COc1ccc(OCCCC(=O)Nc2cccc(SC)c2)cc1
- IC90: > 100 µM

Compound: Cc1oc2ccc(OC(=O)c3cccs3)cc2c1C(=O)OC(C)C
- IC50: 2.84 µM
- IC90: 21.3 µM

Compound: O=C(NCc1ccco1)c1cc2n(n1)C(C(F)(F)F)CC(c1ccc(Cl)c(Cl)c1)N2 (stereo unspecified)
- IC90: > 100 µM
- CC50: > 40 µM

Compound: Cc1oc2c(c1C(=O)Nc1cccc3ccccc13)CCCC2
- IC50: 3.58 µM
- IC90: 7.71 µM

Compound: CCOC(=O)N1CCN(C(=O)CSc2nc(-c3cccc(C)c3)ns2)CC1
- IC50: 0.734 µM
- IC90: 0.828 µM
- CC50: > 40 µM

Compound: O=C(Nc1ccc(N2CCOCC2)c(Cl)c1)c1ccc([N+](=O)[O-])o1
- IC50: 7.54 µM
- IC90: 11.3 µM
- CC50: 3.3 µM

Compound: O=[N+]([O-])c1ncn(Cc2c(Cl)cccc2Cl)n1
- IC50: 36.6 µM
- IC90: > 100 µM

Compound: Cc1ccc(-c2nnc(N3CCN(C(=O)c4ccco4)CC3)c3ccccc23)cc1
- IC50: 7.44 µM
- IC90: 13.8 µM

Compound: Cc1ccc(-c2c[n+](CC(=O)N3c4ccccc4Sc4ccccc43)c3n2CCC3)cc1
- IC50: 7.87 µM
- IC90: 20.6 µM

Compound: O=C(Nc1nc2ccccc2[nH]1)c1ccc(Cl)c([N+](=O)[O-])c1
- IC50: 13.7 µM
- IC90: > 100 µM
- CC50: > 40 µM

Compound: COc1ccc2cc(-c3[nH]ncc3CN3CCCN(c4ccccc4)CC3)ccc2c1
- IC50: 9.35 µM
- IC90: 15.4 µM
- CC50: > 40 µM

Compound: CCCOC(=O)c1ccc(NC(=O)C(=O)NCC2CCCO2)cc1 (stereo unspecified)
- IC50: 38.7 µM
- IC90: > 100 µM

Compound: CCc1cc2cc(C(=O)Nc3ccc(F)cc3)sc2s1
- IC50: 0.512 µM
- IC90: 0.79 µM

Compound: CC1CCN(C(=O)COC(=O)c2cc3ccccc3cc2O)CC1
- IC50: 0.634 µM
- IC90: 2.51 µM

Compound: Cc1cc(=O)[nH]c(SCC(=O)C23CC4CC(CC(C4)C2)C3)c1C#N
- IC90: > 100 µM
- CC50: 21.2 µM

Compound: Cc1ccc(C2=Nc3ccccc3SC(c3cccc([N+](=O)[O-])c3)C2)cc1 (stereo unspecified)
- IC50: 3.71 µM
- IC90: 5.74 µM
- CC50: 33 µM

Compound: CCOC(=O)c1ccc(N2CSC3=C(C#N)C(c4cccs4)CC(=O)N3C2)cc1 (stereo unspecified)
- IC50: 30.5 µM
- IC90: > 100 µM

Compound: CCCCn1c(O)c(C(=O)/C=C/c2ccc3c(c2)OCO3)c(=O)[nH]c1=O
- IC50: 4.53 µM
- IC90: 7.66 µM
- CC50: > 40 µM
